Laboratory results as given in patent US20250353891A1 (MEDIMMUNE LIMITED, priority 2022, published 2025).
Starred links: 1 amine or outer side, 2 acyl side, 3 side chain; linkers in the order of their positions; H or OH if unused. Non-standard residues stand in square brackets, D forms with d. Residues, ends and D or L forms follow the SMILES beside them. Groups on a side chain read outwards from the residue. *: point of attachment. C20 diacid = O=C(O)CCCCCCCCCCCCCCCCCCC(=O)*; γGlu = O=C(O)[C@H](CCC(=O)[*:2])N[*:1]; αMeF = C[C@](N)(Cc1ccccc1)C(=O)O; AEEA = NCCOCCOCC(=O)O; Aib = CC(C)(N)C(=O)O

How the values were obtained:
[1] = biological target: human glucagon receptor (hGCGR) (Homo sapiens, UniProt P47871); assay: cAMP production (HTRF) in CHO cells expressing hGCGR; assay type: cell-based; design: expressed in transfected cells; settings: Table 6, peptides modified at position 17; cAMP in CHO hGCGR cells; geometric mean; read-out: hGluc-R EC50
human glucagon receptor (hGCGR), sequence (P47871 26-477): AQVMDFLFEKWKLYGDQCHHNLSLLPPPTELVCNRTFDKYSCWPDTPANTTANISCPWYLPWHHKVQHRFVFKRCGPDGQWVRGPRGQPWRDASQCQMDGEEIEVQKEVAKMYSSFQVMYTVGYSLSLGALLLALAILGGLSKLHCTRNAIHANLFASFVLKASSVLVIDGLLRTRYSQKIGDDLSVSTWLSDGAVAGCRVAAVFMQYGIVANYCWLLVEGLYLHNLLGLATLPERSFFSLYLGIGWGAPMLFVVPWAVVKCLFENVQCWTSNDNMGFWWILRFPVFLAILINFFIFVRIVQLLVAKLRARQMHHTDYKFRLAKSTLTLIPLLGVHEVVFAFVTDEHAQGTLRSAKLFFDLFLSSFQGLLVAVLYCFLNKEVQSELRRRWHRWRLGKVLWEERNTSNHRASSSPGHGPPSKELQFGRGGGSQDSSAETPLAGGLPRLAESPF
Procedure, shortened: (§1)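 Cells were resuspended in assay buffer at batch-optimized density, typically 1×10^5 cells/mL for hGLP-1R and 2×10^5 cells/mL for hGCGR. After 30 min incubation at room temperature with compound, cAMP was measured by two-step HTRF. EC50 values came from 4-parameter logistic fits of % Delta F.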

[2] = biological target: human GLP-1 receptor (hGLP-1R) (Homo sapiens, UniProt P43220); assay: cAMP production (HTRF) in CHO cells expressing hGLP-1R; assay type: cell-based; design: expressed in transfected cells; settings: for EC50: Table 6, peptides modified at position 17, cAMP in CHO hGLP-1R cells, geometric mean, read-out: hGLP-1R EC50; for % Relative Potency Ratio: Table 6, % GLP-1R activity relative to GLP-1 / % GlucR activity relative to glucagon
human GLP-1 receptor (hGLP-1R), sequence (P43220 24-463): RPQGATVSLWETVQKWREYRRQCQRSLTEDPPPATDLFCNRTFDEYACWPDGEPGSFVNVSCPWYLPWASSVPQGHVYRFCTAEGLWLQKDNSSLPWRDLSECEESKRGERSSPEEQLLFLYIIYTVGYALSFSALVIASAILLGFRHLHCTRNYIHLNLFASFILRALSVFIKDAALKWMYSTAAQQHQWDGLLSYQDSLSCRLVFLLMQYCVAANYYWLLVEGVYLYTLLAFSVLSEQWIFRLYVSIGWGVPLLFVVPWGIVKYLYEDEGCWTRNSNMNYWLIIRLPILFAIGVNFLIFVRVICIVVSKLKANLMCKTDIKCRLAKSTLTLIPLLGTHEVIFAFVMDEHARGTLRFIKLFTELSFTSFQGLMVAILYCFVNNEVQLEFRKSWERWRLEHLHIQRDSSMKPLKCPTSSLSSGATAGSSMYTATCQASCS
Procedure, shortened: as §1

Row | Structure (SMILES) | EC50 [1] | EC50 [2] | % Relative Potency Ratio [2]
1 | CC(C)C[C@H](NC(=O)[C@H](Cc1c[nH]c2ccccc12)NC(=O)[C@H](CC(C)C)NC(=O)[C@@H](NC(=O)[C@H](Cc1ccccc1)NC(=O)[C@H](CC(=O)O)NC(=O)[C@H](CCCNC(=N)N)NC(=O)[C@H](C)NC(=O)[C@H](CCCNC(=N)N)NC(=O)[C@H](CCCCNC(=O)COCCOCCNC(=O)COCCOCCNC(=O)CC[C@H](NC(=O)CCCCCCCCCCCCCCCCCCC(=O)O)C(=O)O)NC(=O)[C@H](CCCCN)NC(=O)[C@H](CC(=O)O)NC(=O)[C@H](CC(C)C)NC(=O)[C@](C)(Cc1ccccc1)NC(=O)[C@H](CCCCN)NC(=O)[C@H](CO)NC(=O)[C@@H](NC(=O)[C@H](CC(=O)O)NC(=O)[C@H](CO)NC(=O)[C@@H](NC(=O)[C@H](Cc1ccccc1)NC(=O)[C@@H](NC(=O)CNC(=O)[C@H](CCC(N)=O)NC(=O)C(C)(C)NC(=O)[C@@H](N)Cc1c[nH]cn1)[C@@H](C)O)[C@@H](C)O)C(C)C)C(C)C)C(=O)N[C@@H](CC(C)C)C(=O)NC(C)(C)C(=O)N[C@@H](CCC(=O)O)C(N)=O [Peptide 451] (H-H[Aib]QGTFTSDVSK[αMeF]LDKK([AEEA-AEEA-γGlu-C20 diacid])RARDFVLWLL[Aib]E-NH2; N-terminus assumed) | 0.503 nM | 0.895 nM | 1.1
2 | CC(C)C[C@H](NC(=O)[C@H](C)NC(=O)[C@H](CCCNC(=N)N)NC(=O)[C@H](CCCCNC(=O)COCCOCCNC(=O)COCCOCCNC(=O)CC[C@H](NC(=O)CCCCCCCCCCCCCCCCCCC(=O)O)C(=O)O)NC(=O)[C@H](CCCCN)NC(=O)[C@H](CC(=O)O)NC(=O)[C@H](CC(C)C)NC(=O)[C@](C)(Cc1ccccc1)NC(=O)[C@H](CCCCN)NC(=O)[C@H](CO)NC(=O)[C@@H](NC(=O)[C@H](CC(=O)O)NC(=O)[C@H](CO)NC(=O)[C@@H](NC(=O)[C@H](Cc1ccccc1)NC(=O)[C@@H](NC(=O)CNC(=O)[C@H](CCC(N)=O)NC(=O)C(C)(C)NC(=O)[C@@H](N)Cc1c[nH]cn1)[C@@H](C)O)[C@@H](C)O)C(C)C)C(=O)N[C@@H](CC(=O)O)C(=O)N[C@@H](Cc1ccccc1)C(=O)N[C@H](C(=O)N[C@@H](CCCNC(=N)N)C(=O)N[C@@H](Cc1c[nH]c2ccccc12)C(=O)N[C@@H](CC(C)C)C(=O)N[C@@H](CC(C)C)C(=O)NC(C)(C)C(=O)N[C@@H](CCC(=O)O)C(N)=O)C(C)C [Peptide 452] (H-H[Aib]QGTFTSDVSK[αMeF]LDKK([AEEA-AEEA-γGlu-C20 diacid])RALDFVRWLL[Aib]E-NH2) | 0.151 nM | 0.495 nM | 0.6
3 | CC(C)C[C@H](NC(=O)[C@H](Cc1c[nH]c2ccccc12)NC(=O)[C@H](CCCNC(=N)N)NC(=O)[C@@H](NC(=O)[C@H](Cc1ccccc1)NC(=O)[C@H](CC(=O)O)NC(=O)[C@H](CCC(N)=O)NC(=O)[C@H](C)NC(=O)[C@H](CCCNC(=N)N)NC(=O)[C@H](CCCCNC(=O)COCCOCCNC(=O)COCCOCCNC(=O)CC[C@H](NC(=O)CCCCCCCCCCCCCCCCCCC(=O)O)C(=O)O)NC(=O)[C@H](CCCCN)NC(=O)[C@H](CC(=O)O)NC(=O)[C@H](CC(C)C)NC(=O)[C@](C)(Cc1ccccc1)NC(=O)[C@H](CCCCN)NC(=O)[C@H](CO)NC(=O)[C@@H](NC(=O)[C@H](CC(=O)O)NC(=O)[C@H](CO)NC(=O)[C@@H](NC(=O)[C@H](Cc1ccccc1)NC(=O)[C@@H](NC(=O)CNC(=O)[C@H](CCC(N)=O)NC(=O)C(C)(C)NC(=O)[C@@H](N)Cc1c[nH]cn1)[C@@H](C)O)[C@@H](C)O)C(C)C)C(C)C)C(=O)N[C@@H](CC(C)C)C(=O)N[C@@H](CCC(=O)O)C(=O)NC(C)(C)C(=O)NCC(N)=O [Peptide 453] | 0.162 nM | 0.17 nM | 1.9
4 | CC(C)C[C@H](NC(=O)[C@H](Cc1c[nH]c2ccccc12)NC(=O)[C@H](CCCNC(=N)N)NC(=O)[C@@H](NC(=O)[C@H](Cc1ccccc1)NC(=O)[C@H](CC(=O)O)NC(=O)[C@H](CCC(N)=O)NC(=O)[C@H](C)NC(=O)[C@H](CCCNC(=N)N)NC(=O)[C@H](CCCCNC(=O)COCCOCCNC(=O)COCCOCCNC(=O)CC[C@H](NC(=O)CCCCCCCCCCCCCCCCCCC(=O)O)C(=O)O)NC(=O)[C@H](CCCCN)NC(=O)[C@H](CC(=O)O)NC(=O)[C@H](CC(C)C)NC(=O)[C@](C)(Cc1ccccc1)NC(=O)[C@H](CCCCN)NC(=O)[C@H](CO)NC(=O)[C@@H](NC(=O)[C@H](CC(=O)O)NC(=O)[C@H](CO)NC(=O)[C@@H](NC(=O)[C@H](Cc1ccccc1)NC(=O)[C@@H](NC(=O)CNC(=O)[C@H](CCC(N)=O)NC(=O)C(C)(C)NC(=O)[C@@H](N)Cc1c[nH]cn1)[C@@H](C)O)[C@@H](C)O)C(C)C)C(C)C)C(=O)N[C@@H](CCC(=O)O)C(=O)N[C@@H](C)C(=O)NC(C)(C)C(=O)NCC(N)=O [Peptide 454] (H-H[Aib]QGTFTSDVSK[αMeF]LDKK([AEEA-AEEA-γGlu-C20 diacid])RAQDFVRWLEA[Aib]G-NH2) | 0.274 nM | 0.173 nM | 3.1
5 | CC(C)C[C@H](NC(=O)[C@H](Cc1c[nH]c2ccccc12)NC(=O)[C@H](CCCNC(=N)N)NC(=O)[C@@H](NC(=O)[C@H](Cc1ccccc1)NC(=O)[C@H](CC(=O)O)NC(=O)[C@H](CCC(N)=O)NC(=O)[C@H](C)NC(=O)[C@H](CCCNC(=N)N)NC(=O)[C@H](CCCCNC(=O)COCCOCCNC(=O)COCCOCCNC(=O)CC[C@H](NC(=O)CC[C@H](NC(=O)CCCCCCCCCCCCCCCCCCC(=O)O)C(=O)O)C(=O)O)NC(=O)[C@H](CCCCN)NC(=O)[C@H](CC(=O)O)NC(=O)[C@H](CC(C)C)NC(=O)[C@](C)(Cc1ccccc1)NC(=O)[C@H](CCCCN)NC(=O)[C@H](CO)NC(=O)[C@@H](NC(=O)[C@H](CC(=O)O)NC(=O)[C@H](CO)NC(=O)[C@@H](NC(=O)[C@H](Cc1ccccc1)NC(=O)[C@@H](NC(=O)CNC(=O)[C@H](CCC(N)=O)NC(=O)C(C)(C)NC(=O)[C@@H](N)Cc1c[nH]cn1)[C@@H](C)O)[C@@H](C)O)C(C)C)C(C)C)C(=O)N[C@@H](CC(C)C)C(=O)NC(C)(C)C(=O)N[C@@H](CCC(=O)O)C(N)=O [Peptide 455] (H-H[Aib]QGTFTSDVSK[αMeF]LDKK([AEEA-AEEA-γGlu-γGlu-C20 diacid])RAQDFVRWLL[Aib]E-NH2) | 0.114 nM | 0.127 nM | 1.8
6 | CC(C)C[C@H](NC(=O)[C@H](Cc1c[nH]c2ccccc12)NC(=O)[C@H](CCCNC(=N)N)NC(=O)[C@@H](NC(=O)[C@H](Cc1ccccc1)NC(=O)[C@H](CC(=O)O)NC(=O)[C@H](CCC(N)=O)NC(=O)[C@H](C)NC(=O)[C@H](CCCNC(=N)N)NC(=O)[C@H](CCCCNC(=O)COCCOCCNC(=O)COCCOCCNC(=O)CC[C@H](NC(=O)CCCCCCCCCCCCCCCCCCC(=O)O)C(=O)O)NC(=O)[C@H](CCCNC(=N)N)NC(=O)[C@H](CC(=O)O)NC(=O)[C@H](CC(C)C)NC(=O)[C@](C)(Cc1ccccc1)NC(=O)[C@H](CCCCN)NC(=O)[C@H](CO)NC(=O)[C@@H](NC(=O)[C@H](CC(=O)O)NC(=O)[C@H](CO)NC(=O)[C@@H](NC(=O)[C@H](Cc1ccccc1)NC(=O)[C@@H](NC(=O)CNC(=O)[C@H](CCC(N)=O)NC(=O)C(C)(C)NC(=O)[C@@H](N)Cc1c[nH]cn1)[C@@H](C)O)[C@@H](C)O)C(C)C)C(C)C)C(=O)N[C@@H](CC(C)C)C(=O)NC(C)(C)C(=O)N[C@@H](CCC(=O)O)C(N)=O [Peptide 456] (H-H[Aib]QGTFTSDVSK[αMeF]LDRK([AEEA-AEEA-γGlu-C20 diacid])RAQDFVRWLL[Aib]E-NH2; N-terminus assumed) | 0.0803 nM | 0.133 nM | 1.2
